In one assay the test system is C. neoformans ATCC 32264. In words: Antifungal broth microdilution (CLSI M27-A3), growth inhibition. It counts as cell-based, Cryptococcus neoformans. The note with it: for MIC50 (minimum concentration to inhibit 50% of fungal growth), C. neoformans: C. neoformans ATCC 32264. The method, then: (§1) The antifungal properties of compounds 1–24 against two clinical important fungal species, C. albicans ATCC 10231 and C. neoformans ATCC 32264 were investigated. Results were expressed as the percentages of inhibition of each fungus in the range 250–3.9 μg∙mL^−1 by using the standardized microbroth dilution method M-27A3 of Clinical and Laboratory Standards Institute which assures reliable and reproducible results.
(§2) For the antifungal evaluation, standardized strains from the American Type Culture Collection (ATCC), Rockville, MD, USA, were used. The microorganisms included yeasts (Candida albicans ATCC 10231 and Cryptococcus neoformans ATCC 32264). Strains were grown on Sabouraud-chloramphenicol agar slants for 48 h at 30 °C, maintained on slopes of Sabouraud-dextrose agar (SDA, Oxoid), and subcultured every 15 days to prevent pleomorphic transformations. Inocula of cell or spore suspensions were obtained according to reported procedures and adjusted to 1–5 × 10^3 cells/spores with colony forming units (CFU)/mL [29].
(§3) Broth microdilution techniques were performed in 96-well microplates according to the Clinical and Laboratory Standards Institute Reference Method for Broth Dilution Antifungal Susceptibility Testing of Yeasts, Approved Standard M27-A3 [29]. For the assay, compound test wells (CTWs) were prepared with stock solutions of each compound in DMSO (maximum concentration ≤1%), diluted with RPMI-1640, to final concentrations of 250–3.9 μg∙mL^−1. An inoculum suspension (100 μL) was added to each well (final volume in the well = 200 μL). A growth control well (GCW) (containing medium, inoculum, and the same amount of DMSO used in a CTW, but compound-free) and a sterility control well (SCW) (sample, medium, and sterile water instead of inoculum) were included for each fungus tested. Microtiter trays were incubated in a moist, dark chamber at 30 °C for 48 h for both yeasts. Microplates were read in a VERSA Max microplate reader (Molecular Devices, Sunnyvale, CA, USA). Amphotericin B (Sigma-Aldrich) was used as positive control. Tests were performed in triplicate. Reduction of growth for each compound concentration was calculated as follows: % of inhibition = 100 − (OD 405 CTW − OD 405 SCW)/(OD 405 GCW − OD 405 SCW). The means ± SEM were the results of triplicate tests. Three endpoints were defined from the assay explained above and the dose-response curves. Minimum Inhibitory concentration (MIC) resulting in total fungal growth inhibition was named MIC100 while MIC50 was defined as the minimum concentration that inhibits 50% of the fungal growth.

Another assay relates to C. albicans ATCC 10231. The description is as above. It counts as cell-based, Candida albicans. Particulars: for MIC50 (minimum concentration to inhibit 50% of fungal growth), C. albicans: C. albicans ATCC 10231. The method, then:
as §1, §2, §3

Structures are written as SMILES.

`CC(C)c1cc2c(c(OC(=O)CCc3cn(Cc4ccc(Br)cc4)nn3)c1OC(=O)CCc1cn(Cc3ccc(Br)cc3)nn1)C13CCCC(C)(C)C1CC2OC3=O` (stereo not drawn) [Compound 21, (7β)-11,12-O-(3-(1-(4-bromobenzyl)-1H-1,2,3-triazol-4-yl)-propanoyloxy)-7,20-epoxyabieta-8,11,13-trien-20-one]: the “Inhibition percentage against C. neoformans ATCC 32264” value with C. neoformans ATCC 32264 (3.9 μg∙mL^−1, 48 h) is 1.2 ± 0.6%; in the assay on C. neoformans ATCC 32264 (7.8 μg∙mL^−1, 48 h), 6.7 ± 0.3%; with C. neoformans ATCC 32264 (15.6 μg∙mL^−1, 48 h), 17.9 ± 0.2%; with C. neoformans ATCC 32264 (31.2 μg∙mL^−1, 48 h) it was 18.9 ± 0.7%; in the assay with C. neoformans ATCC 32264 (62.5 μg∙mL^−1, 48 h) it was 19.2 ± 0.2%; in the assay with C. neoformans ATCC 32264 (125 μg∙mL^−1, 48 h) it was 28.8 ± 0.4%. Besides, the “Inhibition percentage against C. neoformans ATCC 32264” value in the assay on C. neoformans ATCC 32264 (250 μg∙mL^−1, 48 h) worked out at 40.0 ± 0.3%. Besides, the “MIC50 (minimum concentration to inhibit 50% of fungal growth), C. neoformans” value in the assay with C. neoformans ATCC 32264 is more than 250 µg/mL. The “Inhibition percentage against C. albicans ATCC 10231” value in the assay on C. albicans ATCC 10231 (3.9 μg∙mL^−1, 48 h) was 0.0%; in the assay with C. albicans ATCC 10231 (7.8 μg∙mL^−1, 48 h), 0.0%; in the assay on C. albicans ATCC 10231 (15.6 μg∙mL^−1, 48 h), 2.6 ± 0.6%; in the assay with C. albicans ATCC 10231 (62.5 μg∙mL^−1, 48 h), 4.4 ± 1.3%; in the assay on C. albicans ATCC 10231 (125 μg∙mL^−1, 48 h), 6.6 ± 1.1%; with C. albicans ATCC 10231 (250 μg∙mL^−1, 48 h) it was 8.6 ± 2.0%. For the same compound, the “Inhibition percentage against C. albicans ATCC 10231” value with C. albicans ATCC 10231 (31. μg∙mL^−1, 48 h) was determined as 3.5 ± 0.6%. The “MIC50 (minimum concentration to inhibit 50% of fungal growth), C. albicans” value in the assay with C. albicans ATCC 10231 was more than 250 µg/mL.
Take `COC(=O)C12CCCC(C)(C)C1CCc1cc(C(C)C)c(OC(=O)CCc3cn(Cc4ccc([N+](=O)[O-])cc4)nn3)c(OC(=O)CCc3cn(Cc4ccc([N+](=O)[O-])cc4)nn3)c12` (centres unmarked) [Compound 15, Methyl(11,12-O-(3-(1-(4-nitrobenzyl)-1H-1,2,3-triazol-4-yl)-propanoyloxy)-abieta-8,11,13-triene)-20-oate]: the “Inhibition percentage against C. neoformans ATCC 32264” value in the assay with C. neoformans ATCC 32264 (3.9 μg∙mL^−1, 48 h) is given as 0.0%; with C. neoformans ATCC 32264 (7.8 μg∙mL^−1, 48 h) it was 0.0%; in the assay on C. neoformans ATCC 32264 (15.6 μg∙mL^−1, 48 h) it was 10.0 ± 0.6%; in the assay on C. neoformans ATCC 32264 (31.2 μg∙mL^−1, 48 h), 13.0 ± 1.4%; in the assay with C. neoformans ATCC 32264 (62.5 μg∙mL^−1, 48 h) it was 15.5 ± 2.0%; with C. neoformans ATCC 32264 (125 μg∙mL^−1, 48 h), 22.0 ± 2.7%. The “Inhibition percentage against C. neoformans ATCC 32264” value with C. neoformans ATCC 32264 (250 μg∙mL^−1, 48 h) is reported as 45.4 ± 3.0%. Moreover, the “MIC50 (minimum concentration to inhibit 50% of fungal growth), C. neoformans” value in the assay with C. neoformans ATCC 32264 is more than 250 µg/mL. The “Inhibition percentage against C. albicans ATCC 10231” value in the assay with C. albicans ATCC 10231 (3.9 μg∙mL^−1, 48 h) was determined as 0.0%; in the assay with C. albicans ATCC 10231 (7.8 μg∙mL^−1, 48 h) it was 0.0%; in the assay with C. albicans ATCC 10231 (15.6 μg∙mL^−1, 48 h) it was 2.6 ± 0.3%; in the assay with C. albicans ATCC 10231 (62.5 μg∙mL^−1, 48 h), 8.2 ± 0.3%; in the assay with C. albicans ATCC 10231 (125 μg∙mL^−1, 48 h), 15.2 ± 2.8%; in the assay on C. albicans ATCC 10231 (250 μg∙mL^−1, 48 h), 33.4 ± 2.7%. For the same compound, the “Inhibition percentage against C. albicans ATCC 10231” value in the assay with C. albicans ATCC 10231 (31. μg∙mL^−1, 48 h) is on record as 3.0 ± 1.1%. In the assay on C. albicans ATCC 10231, the “MIC50 (minimum concentration to inhibit 50% of fungal growth), C. albicans” value is more than 250 µg/mL.

The record behind these values is paper PMC6272684, “Synthesis, Antiproliferative and Antifungal Activities of 1,2,3-Triazole-Substituted Carnosic Acid and Carnosol Derivatives” (Molecules, 2015).
